# ChEMBL document CHEMBL3745645, “Synthesis, in vitro antitumor activity, dihydrofolate reductase inhibition, DNA intercalation and structure-activity relationship studies of 1,3,5-triazine analogues” (Bioorg Med Chem Lett, 2016)
# Active and inactive are the calls of the source. The calls are words filed in the database; no cut-off is given here.
# Legend:
# Format in all cases: functional
# [1] = Cytotoxicity against human UACC62 cells at 10 uM after 48 hrs by SRB assay; conditions: UACC-62, 48 h, read-out: GI
# [2] = Cytotoxicity against human HCT116 cells at 10 uM after 48 hrs by SRB assay; conditions: HCT-116, 48 h, read-out: GI
# [3] = Cytotoxicity against human Caki1 cells at 10 uM after 48 hrs by SRB assay; conditions: CAKI-1, 48 h, read-out: GI
# [4] = Cytotoxicity against human SF539 cells at 10 uM after 48 hrs by SRB assay; conditions: SF-539, 48 h, read-out: GI
# [5] = Cytotoxicity against human SF268 cells at 10 uM after 48 hrs by SRB assay; conditions: SF-268, 48 h, read-out: GI
# [6] = Cytotoxicity against human UACC257 cells at 10 uM after 48 hrs by SRB assay; conditions: UACC-257, 48 h, read-out: GI
# COLO 205 = assay: Cytotoxicity against human COLO205 cells at 10 uM after 48 hrs by SRB assay
# CCRF-CEM = assay: Cytotoxicity against human CCRF-CEM cells at 10 uM after 48 hrs by SRB assay; conditions: read-out: GI
# NCI-H522 = assay: Cytotoxicity against human NCI-H522 cells at 10 uM after 48 hrs by SRB assay
# HT-29 = assay: Cytotoxicity against human HT-29 cells at 10 uM after 48 hrs by SRB assay; conditions: HT-29, 48 h, read-out: GI
# [7] = Cytotoxicity against human HOP62 cells at 10 uM after 48 hrs by SRB assay; conditions: HOP-62, 48 h, read-out: GI
# [8] = Cytotoxicity against human Hs 578T cells at 10 uM after 48 hrs by SRB assay; conditions: read-out: GI
# [9] = Cytotoxicity against human HCC2998 cells at 10 uM after 48 hrs by SRB assay; conditions: HCC 2998, 48 h, read-out: GI
# [10] = Cytotoxicity against human SNB19 cells at 10 uM after 48 hrs by SRB assay; conditions: SNB-19, 48 h, read-out: GI
# [11] = Cytotoxicity against human RPMI8226 cells at 10 uM after 48 hrs by SRB assay; conditions: RPMI-8226, 48 h, read-out: GI
# [12] = Cytotoxicity against human NCI-ADR-RES cells at 10 uM after 48 hrs by SRB assay; conditions: read-out: GI
# [13] = Cytotoxicity against human HOP92 cells at 10 uM after 48 hrs by SRB assay; conditions: HOP-92, 48 h, read-out: GI
# [14] = Cytotoxicity against human OVCAR3 cells at 10 uM after 48 hrs by SRB assay; conditions: OVCAR-3, 48 h, read-out: GI
# [15] = Cytotoxicity against human BT549 cells at 10 uM after 48 hrs by SRB assay; conditions: BT-549, 48 h, read-out: GI
# [16] = Cytotoxicity against human PC3 cells at 10 uM after 48 hrs by SRB assay; conditions: PC-3, 48 h, read-out: GI
# SK-MEL-28 = assay: Cytotoxicity against human SK-MEL-28 cells at 10 uM after 48 hrs by SRB assay
# K562 = assay: Cytotoxicity against human K562 cells at 10 uM after 48 hrs by SRB assay; conditions: K562, 48 h, read-out: GI
# ACHN = assay: Cytotoxicity against human ACHN cells at 10 uM after 48 hrs by SRB assay; conditions: read-out: GI
# A498 = assay: Cytotoxicity against human A498 cells at 10 uM after 48 hrs by SRB assay; conditions: A498, 48 h, read-out: GI
# 786-0 = assay: Cytotoxicity against human 786-0 cells at 10 uM after 48 hrs by SRB assay; conditions: 786-0, 48 h, read-out: GI
# [17] = Cytotoxicity against human OVCAR4 cells at 10 uM after 48 hrs by SRB assay; conditions: OVCAR-4, 48 h, read-out: GI
# MCF7 = assay: Cytotoxicity against human MCF7 cells at 10 uM after 48 hrs by SRB assay; conditions: MCF7, 48 h, read-out: GI
# [18] = Cytotoxicity against human HL-60(TB) cells at 10 uM after 48 hrs by SRB assay; conditions: HL-60, 48 h, read-out: GI
# A549 = assay: Cytotoxicity against human A549 cells at 10 uM after 48 hrs by SRB assay; conditions: A549, 48 h, read-out: GI
# MDA-MB-435 = assay: Cytotoxicity against human MDA-MB-435 cells at 10 uM after 48 hrs by SRB assay; conditions: MDA-MB-435, 48 h, read-out: GI
# SR = assay: Cytotoxicity against human SR cells at 10 uM after 48 hrs by SRB assay; conditions: read-out: GI
# [19] = Cytotoxicity against human SF295 cells at 10 uM after 48 hrs by SRB assay; conditions: SF-295, 48 h, read-out: GI
# NCI-H226 = assay: Cytotoxicity against human NCI-H226 cells at 10 uM after 48 hrs by SRB assay; conditions: NCI-H226, 48 h, read-out: GI
# Malme-3M = assay: Cytotoxicity against human MALME-3M cells at 10 uM after 48 hrs by SRB assay
# M14 = assay: Cytotoxicity against human M14 cells at 10 uM after 48 hrs by SRB assay
# [20] = Cytotoxicity against human MOLT4 cells at 10 uM after 48 hrs by SRB assay; conditions: MOLT-4, 48 h, read-out: GI
# T47D = assay: Cytotoxicity against human T47D cells at 10 uM after 48 hrs by SRB assay; conditions: read-out: GI
# SN12C = assay: Cytotoxicity against human SN12C cells at 10 uM after 48 hrs by SRB assay; conditions: read-out: GI
# [21] = Cytotoxicity against human DU145 cells at 10 uM after 48 hrs by SRB assay; conditions: DU-145, 48 h, read-out: GI
# [22] = Cytotoxicity against human LOXIMVI cells at 10 uM after 48 hrs by SRB assay; conditions: LOX IMVI, read-out: GI
# [23] = Cytotoxicity against human IGROV1 cells at 10 uM after 48 hrs by SRB assay; conditions: IGROV-1, 48 h, read-out: GI
# [24] = Cytotoxicity against human SNB75 cells at 10 uM after 48 hrs by SRB assay; conditions: SNB-75, 48 h, read-out: GI
# [25] = Cytotoxicity against human OVCAR5 cells at 10 uM after 48 hrs by SRB assay; conditions: OVCAR-5, 48 h, read-out: GI
# [26] = Cytotoxicity against human HCT15 cells at 10 uM after 48 hrs by SRB assay; conditions: HCT-15, 48 h, read-out: GI
# [27] = Cytotoxicity against human RXF393 cells at 10 uM after 48 hrs by SRB assay; conditions: RXF 393, 48 h, read-out: GI
# KM12 = assay: Cytotoxicity against human KM12 cells at 10 uM after 48 hrs by SRB assay; conditions: KM12, 48 h, read-out: GI
# [28] = Cytotoxicity against human UO31 cells at 10 uM after 48 hrs by SRB assay; conditions: UO-31, 48 h, read-out: GI
# SK-MEL-2 = assay: Cytotoxicity against human SK-MEL-2 cells at 10 uM after 48 hrs by SRB assay
# MDA-MB-231 = assay: Cytotoxicity against human MDA-MB-231 cells at 10 uM after 48 hrs by SRB assay; conditions: MDA-MB-231, 48 h, read-out: GI
# [29] = Cytotoxicity against human SW620 cells at 10 uM after 48 hrs by SRB assay; conditions: SW-620, 48 h, read-out: GI
# MDA-MB-468 = assay: Cytotoxicity against human MDA-MB-468 cells at 10 uM after 48 hrs by SRB assay; conditions: MDA-MB-468, 48 h, read-out: GI
# NCI-H460 = assay: Cytotoxicity against human NCI-H460 cells at 10 uM after 48 hrs by SRB assay; conditions: NCI-H460, 48 h, read-out: GI
# [30] = Cytotoxicity against human TK10 cells at 10 uM after 48 hrs by SRB assay; conditions: TK-10, 48 h, read-out: GI
# [31] = Cytotoxicity against human OVCAR8 cells at 10 uM after 48 hrs by SRB assay; conditions: OVCAR-8, 48 h, read-out: GI
# SK-MEL-5 = assay: Cytotoxicity against human SK-MEL-5 cells at 10 uM after 48 hrs by SRB assay; conditions: SK-MEL-5, 48 h, read-out: GI
# [32] = Cytotoxicity against human SKOV3 cells at 10 uM after 48 hrs by SRB assay; conditions: SK-OV-3, 48 h, read-out: GI
structure (smiles),measurement,setting,value
Cc1nc2cc(Nc3nc(Cl)nc(Nc4ccc(F)cc4)n3)ccc2n1Cc1ccccc1,inhibition of growth at 10 µM,[1],17.6%
same,inhibition of growth at 10 µM,[2],96.1%
same,inhibition of growth at 10 µM,[3],12.3%
same,inhibition of growth at 10 µM,[4],29.8%
same,inhibition of growth at 10 µM,[5],8.93%
same,inhibition of growth at 10 µM,[6],10.3%
same,growth inhibition (GI),COLO 205,inactive
same,inhibition of growth at 10 µM,CCRF-CEM,21.5%
same,growth inhibition (GI),NCI-H522,Active
same,inhibition of growth at 10 µM,HT-29,5.46%
same,inhibition of growth at 10 µM,[7],11.6%
same,inhibition of growth at 10 µM,[8],20.5%
same,inhibition of growth at 10 µM,[9],5.54%
same,inhibition of growth at 10 µM,[10],7.64%
same,inhibition of growth at 10 µM,[11],84.7%
same,inhibition of growth at 10 µM,[12],4.36%
same,inhibition of growth at 10 µM,[13],49.3%
same,inhibition of growth at 10 µM,[14],5.75%
same,inhibition of growth at 10 µM,[15],9.39%
same,inhibition of growth at 10 µM,[16],21.2%
same,growth inhibition (GI),SK-MEL-28,inactive
same,inhibition of growth at 10 µM,K562,14.8%
same,inhibition of growth at 10 µM,ACHN,63.8%
same,inhibition of growth at 10 µM,A498,30.6%
same,inhibition of growth at 10 µM,786-0,67%
same,inhibition of growth at 10 µM,[17],14.2%
same,inhibition of growth at 10 µM,MCF7,38.5%
same,inhibition of growth at 10 µM,[18],46.8%
same,inhibition of growth at 10 µM,A549,13.3%
same,inhibition of growth at 10 µM,MDA-MB-435,4.44%
same,inhibition of growth at 10 µM,SR,42.5%
same,inhibition of growth at 10 µM,[19],3.61%
same,inhibition of growth at 10 µM,NCI-H226,19.6%
same,growth inhibition (GI),Malme-3M,inactive
same,growth inhibition (GI),M14,inactive
same,inhibition of growth at 10 µM,[20],9.41%
same,inhibition of growth at 10 µM,T47D,43%
same,inhibition of growth at 10 µM,SN12C,22.1%
same,inhibition of growth at 10 µM,[21],36%
same,inhibition of growth at 10 µM,[22],56.7%
same,inhibition of growth at 10 µM,[23],17%
same,inhibition of growth at 10 µM,[24],10%
same,inhibition of growth at 10 µM,[25],3.73%
same,inhibition of growth at 10 µM,[26],27.9%
same,inhibition of growth at 10 µM,[27],22.9%
same,inhibition of growth at 10 µM,KM12,30.8%
same,inhibition of growth at 10 µM,[28],19.3%
same,growth inhibition (GI),SK-MEL-2,inactive
same,inhibition of growth at 10 µM,MDA-MB-231,17.9%
same,inhibition of growth at 10 µM,[29],15.2%
same,inhibition of growth at 10 µM,MDA-MB-468,23.8%
same,inhibition of growth at 10 µM,NCI-H460,12%
same,inhibition of growth at 10 µM,[30],41.5%
same,inhibition of growth at 10 µM,[31],18.5%
same,inhibition of growth at 10 µM,SK-MEL-5,7.59%
same,inhibition of growth at 10 µM,[32],4.12%
